The results in this text go back to ChEMBL document CHEMBL1201862, “PubChem BioAssay data set” (2004).

Test systems include BT-549; CAKI-1; COLO 205; DU-145; EKVX; HCT-116; Hs-578T; IGROV-1; MCF7; NCI-H226; NCI-H23; OVCAR-4; OVCAR-5; OVCAR-8; RPMI-8226; RXF 393; SF-268; SK-MEL-2; SK-OV-3; T47D.
Experiment in all cases: DTP human tumour cell line panel, 48 h

As usually defined, the GI50 is the concentration giving 50% growth inhibition.

Structures are written as SMILES.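 In this assay, cells in 96-well plates receive the compound at five concentrations for 48 hours. Endpoints are linearly interpolated between the surrounding concentrations. GI50 marks 50% less growth.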 Active and inactive are the calls of the source. Cut-off read from the data, not from the text of the source: active = GI50 up to about 1.1 µM and inactive = higher.

For `CC(C)(C)OC(=O)NCCCCC1NC(=O)[C@@H]2Cc3c([nH]c4ccccc34)C(C3CCCCC3)N2C1=O` (some centres undefined), the GI50 is 47.6 µM (inactive) in the assay on BT-549; 56.6 µM (inactive) in the assay with CAKI-1; 20.2 µM (inactive) with COLO 205; 54.8 µM (inactive) in the assay with DU-145; 33.7 µM (inactive) in the assay with EKVX; 29.4 µM (inactive) with HCT-116. The GI50 in the assay with Hs-578T was 23.6 µM (inactive); in the assay on IGROV-1, 56.5 µM (inactive); with MCF7 it was 30.6 µM (inactive); in the assay on NCI-H226, 75 µM (inactive); in the assay with NCI-H23, 49.8 µM (inactive); in the assay on OVCAR-4, 35.8 µM (inactive). For the same compound, the GI50 was > 100 µM (inactive) with OVCAR-5; 43 µM (inactive) in the assay with OVCAR-8; 12.2 µM (inactive) with RPMI-8226; 4.23 µM (inactive) with RXF 393; 54.1 µM (inactive) with SF-268; 26 µM (inactive) with SK-MEL-2. Further, the GI50 in the assay on SK-OV-3 is 53.7 µM (inactive); with T47D, 12.9 µM (inactive).
In the case of `CN(C)CCn1c(CO)nc2c1c(=O)n(C)c(=O)n2C`, the GI50 in the assay on BT-549, in the assay with CAKI-1, in the assay on COLO 205, in the assay on DU-145, with EKVX and in the assay on HCT-116 was > 100 µM (inactive) in each case. Further, the GI50 with Hs-578T, in the assay with IGROV-1, in the assay with MCF7, in the assay on NCI-H226, with NCI-H23 and with OVCAR-4 was > 100 µM (inactive) throughout. Also, the GI50 with OVCAR-5, in the assay on OVCAR-8, with RPMI-8226, in the assay on RXF 393, with SF-268 and in the assay on SK-MEL-2 was > 100 µM (inactive) each time. In addition, the GI50 in the assay with SK-OV-3 and in the assay on T47D was > 100 µM (inactive) in each case.
Turning to `COc1ccc2nc3ccc(OC)cc3c(SCCO)c2c1`, the GI50 was 31.3 µM (inactive) in the assay on BT-549; 13.4 µM (inactive) in the assay on CAKI-1; 23.6 µM (inactive) in the assay with COLO 205; 5.65 µM (inactive) with DU-145; 31.7 µM (inactive) with EKVX; 15.8 µM (inactive) with HCT-116. Moreover, the GI50 was 15.4 µM (inactive) in the assay with Hs-578T; 15 µM (inactive) in the assay on IGROV-1; 6.01 µM (inactive) with MCF7; > 61.7 µM (inactive) with NCI-H226; 16.2 µM (inactive) in the assay with NCI-H23; 63.8 µM (inactive) in the assay on OVCAR-4. The GI50 in the assay on OVCAR-5 is > 100 µM (inactive); in the assay with OVCAR-8 it was 17 µM (inactive); with RPMI-8226, 12.3 µM (inactive); in the assay with RXF 393, 12.6 µM (inactive); with SF-268, 25.2 µM (inactive); in the assay on SK-MEL-2, 30 µM (inactive). Moreover, the GI50 in the assay on SK-OV-3 is 54.5 µM (inactive); in the assay on T47D it was 15.8 µM (inactive).
For the compound `COC(=O)c1ccccc1NC(=O)/C(=N\NC(C)(C)C)C(C#N)c1nc(-c2ccc([N+](=O)[O-])cc2)cs1` (centres undefined), the GI50 in the assay on BT-549, in the assay with CAKI-1, with COLO 205, with DU-145, in the assay on EKVX and in the assay on HCT-116 was > 100 µM (inactive) each time. Besides, the GI50 in the assay with Hs-578T, with IGROV-1, in the assay with MCF7, with NCI-H226, in the assay with NCI-H23 and with OVCAR-4 was > 100 µM (inactive) each time. Besides, the GI50 in the assay with OVCAR-5, with OVCAR-8, in the assay on RPMI-8226, in the assay with RXF 393, in the assay with SF-268 and in the assay on SK-MEL-2 was > 100 µM (inactive) each time. Besides, the GI50 in the assay with SK-OV-3 and with T47D was > 100 µM (inactive) in each case.
As to `CN(CCn1cnc2c1c(=O)n(C)c(=O)n2C)C1CCCCC1`, the GI50 in the assay with BT-549, in the assay with CAKI-1, in the assay on COLO 205, in the assay on DU-145, with EKVX and in the assay on HCT-116 was > 100 µM (inactive) in each case. The GI50 in the assay with Hs-578T, with IGROV-1, with MCF7, with NCI-H226, in the assay on NCI-H23 and in the assay with OVCAR-4 was > 100 µM (inactive) in each case. The GI50 in the assay on OVCAR-5, with OVCAR-8, with RPMI-8226, with RXF 393, in the assay on SF-268 and with SK-MEL-2 was > 100 µM (inactive) each time. Further, the GI50 in the assay with SK-OV-3 and in the assay with T47D was > 100 µM (inactive) throughout.
In the case of `COC(=O)c1c(C)c2c(c(C)c1C(=O)OC)-c1c(C)ccc3ccc(C)c-2c13`, the GI50 was > 100 µM (inactive) in the assay with BT-549; > 100 µM (inactive) in the assay with CAKI-1; 34.4 µM (inactive) in the assay with COLO 205; > 100 µM (inactive) in the assay with DU-145; 66.4 µM (inactive) with EKVX; 50.1 µM (inactive) in the assay with HCT-116. The GI50 with Hs-578T is 23.7 µM (inactive); with IGROV-1, 54 µM (inactive); with MCF7, > 78.3 µM (inactive); in the assay on NCI-H226, > 100 µM (inactive); in the assay on OVCAR-4, > 68.5 µM (inactive); in the assay with OVCAR-5, > 68.7 µM (inactive). In addition, the GI50 in the assay on OVCAR-8 is 47.1 µM (inactive); with RPMI-8226, 7.28 µM (inactive); in the assay with RXF 393, 15.6 µM (inactive); in the assay on SF-268, 54 µM (inactive); in the assay with SK-MEL-2 it was > 100 µM (inactive); in the assay with SK-OV-3, > 74.8 µM (inactive). In addition, in the assay with T47D, the GI50 was 18.4 µM (inactive).
`O=C(OCC1OC(n2nc(Cn3nnc(-c4cccnc4)n3)n(-c3cccc4ccccc34)c2=S)C(OC(=O)c2ccccc2)C1OC(=O)c1ccccc1)c1ccccc1` (centres undefined): the GI50 in the assay on BT-549, in the assay with CAKI-1, with COLO 205, in the assay on DU-145, in the assay with EKVX and in the assay with HCT-116 was > 100 µM (inactive) each time. For the same compound, the GI50 in the assay on Hs-578T, with IGROV-1, with MCF7, in the assay with NCI-H226, with NCI-H23 and in the assay with OVCAR-4 was > 100 µM (inactive) throughout. The GI50 in the assay with OVCAR-5 was 65.9 µM (inactive); in the assay on OVCAR-8 it was > 100 µM (inactive); in the assay with RPMI-8226, > 100 µM (inactive); in the assay with RXF 393, > 100 µM (inactive); with SF-268, > 100 µM (inactive); with SK-MEL-2, > 100 µM (inactive). The GI50 with SK-OV-3 and with T47D was > 100 µM (inactive) throughout.
Turning to `COc1ccc(C2(CC(C)C)CCNC2)cc1OC` (centres undefined), the GI50 with BT-549 was > 100 µM (inactive); in the assay with CAKI-1, > 100 µM (inactive); in the assay with COLO 205 it was > 100 µM (inactive); with DU-145 it was > 100 µM (inactive); in the assay on EKVX it was 86.1 µM (inactive); in the assay on HCT-116 it was > 100 µM (inactive). Also, the GI50 was > 100 µM (inactive) in the assay on Hs-578T; 26.5 µM (inactive) in the assay on IGROV-1; 84.1 µM (inactive) in the assay with MCF7; > 100 µM (inactive) with NCI-H226; 78.2 µM (inactive) in the assay on NCI-H23; > 100 µM (inactive) with OVCAR-4. Further, the GI50 with OVCAR-5 is > 100 µM (inactive); in the assay on OVCAR-8, > 100 µM (inactive); in the assay on RPMI-8226, 61.1 µM (inactive); with RXF 393, 41.9 µM (inactive); with SF-268 it was 78.7 µM (inactive); in the assay with SK-MEL-2, > 100 µM (inactive). For the same compound, the GI50 in the assay on SK-OV-3 is > 100 µM (inactive); in the assay with T47D, 31.5 µM (inactive).
As to `COC(=O)c1c2c(cc3c1CC1(C3)Cc3ccc4c(c3C1=O)CCC4)CCC2` (centres undefined), the GI50 in the assay with BT-549 is 2.52 µM (inactive); with CAKI-1, 2.26 µM (inactive); in the assay with COLO 205, 2.37 µM (inactive); in the assay with DU-145, 4.65 µM (inactive); in the assay on EKVX it was 8.17 µM (inactive); with HCT-116, 3.01 µM (inactive). The GI50 in the assay with Hs-578T is 1.91 µM (inactive); in the assay with IGROV-1, 4.99 µM (inactive); with MCF7 it was 2.45 µM (inactive); with NCI-H226, 5.09 µM (inactive); in the assay with NCI-H23, 3.74 µM (inactive); with OVCAR-4, 10.2 µM (inactive). In addition, the GI50 was > 21.1 µM (inactive) in the assay with OVCAR-5; 4.61 µM (inactive) with OVCAR-8; 3.23 µM (inactive) in the assay on RPMI-8226; 0.537 µM (active) with RXF 393; 6.31 µM (inactive) in the assay with SF-268; 3.98 µM (inactive) in the assay with SK-MEL-2. Moreover, the results for the GI50 in the assay on SK-OV-3 and with T47D were 3.93 µM (inactive) and 5.13 µM (inactive), respectively.
Turning to `Cc1ccccc1N1C(N)=C(C#N)C(C#N)(C#N)C1c1ccccc1` (centres undefined), the GI50 with BT-549 is 13.6 µM (inactive); in the assay with CAKI-1, 25.9 µM (inactive); in the assay with COLO 205, 17.9 µM (inactive); with DU-145 it was 16.7 µM (inactive); in the assay on EKVX, 17.9 µM (inactive); in the assay with HCT-116 it was 18 µM (inactive). Also, the GI50 is 20.1 µM (inactive) with Hs-578T; 17.9 µM (inactive) with IGROV-1; 23.6 µM (inactive) in the assay with MCF7; 20.7 µM (inactive) with NCI-H226; 19.4 µM (inactive) with NCI-H23; 19 µM (inactive) in the assay with OVCAR-4. The GI50 with OVCAR-5 is 21.9 µM (inactive); with OVCAR-8, 20.9 µM (inactive); in the assay with RPMI-8226, 19.2 µM (inactive); with RXF 393, 15.3 µM (inactive); in the assay on SF-268, 20.9 µM (inactive); in the assay on SK-MEL-2 it was 25.9 µM (inactive). The results for the GI50 in the assay with SK-OV-3 and in the assay with T47D were 31.3 µM (inactive) and 12.5 µM (inactive), respectively.
